Measurements reported in publication PMC9070039, “Synthesis and evaluation of antimicrobial activity, cytotoxic and pro-apoptotic effects of novel spiro-4H-pyran derivatives” (RSC Advances, 2019).
In brackets after ≈: the same amount, converted by molar mass.

Assays:
S. aureus [1] = assay: Disk diffusion antibacterial test; assay type: cell-based, Staphylococcus aureus; details: there called agar dilution method
Description: (§1) Antibacterial effects of spiro[indeno[2,1-c]pyridazine-9,4′-pyran]-3′,4-dicarbonitrile derivatives 5a–j were evaluated in vitro by using disk diffusion method against Gram-positive (S. aureus) and Gram negative (E. coli). The diameter of inhibition zone correlates to the sensitivity of a bacterium to an antibacterial agent. […] E. coli was resistant against all compounds tested (Table 2). Tetracycline and DMSO were used as positive control and negative control respectively. Next, the active compounds were analysed using MIC assay to determine the lowest concentration for inhibition. […] It seems due to the difference in structure of bacterial cell wall (i.e., the presence of outer membrane with lipid, lipopolysaccharide, and lipoprotein content in Gram negative bacteria), E. coli was resistant against the related synthetic compounds.
(§2) Antibacterial activity of the prepared synthetic compounds against the Gram-negative bacteria (E. coli; ATCC: 15922) and the Gram-positive bacteria (S. aureus; PTCC: 1112, International no. ATCC6538P) were examined by disk diffusion assay. Bacterial cultures were obtained from Persian Type Culture Collection, Tehran, Iran (PTCC). Isolated pure colonies from fresh grown bacteria were transferred from the plates into sterile normal saline solution and it was vortexed to form bacterial homogenous suspensions. The turbidity was then adjusted to 0.5 McFarland standard units, and the suspensions were poured over Mueller–Hinton agar (MHA) plates. Sterile filter paper disks were placed over these plates. The sterile disks were impregnated with the tested compounds. Positive control (tetracycline) and negative control ([…]) were used. To determine MIC, the concentrations of tested substance were prepared within the range from 30–5 mM. Incubate in incubator at 37 °C in 24 h for bacteria (Table 2).

E. coli = assay: Disk diffusion antibacterial test; assay type: cell-based, Escherichia coli; parameters: key: —: inactive at concentration 50 mM; details: disc diffusion test, concentration 50 mM
Description: as §1, §2

S. aureus [2] = assay: MIC determination; assay type: cell-based; details: Staphylococcus aureus; read-out: MICs (mM) S. aureus
Description: as §1, §2

A375 cells = assay: MTT cytotoxicity assay; assay type: cell-based; details: Homo sapiens, A-375, 48 h
Description: (§3) At first, in order to compare anti-cancer properties, the synthesized compounds 5a–j were evaluated against A549 cells, MCF-7 cells, A375 cells, PC3 cells, LNCaP cells and HDF cells lines using the MTT colorimetric assay. The activity is expressed as 50% growth inhibitory concentration (IC50) values at 48 h. We used DMSO (1%) as negative control and Etoposide as positive control.
(§4) Human non-small-cell lung cancer A549 cells, human breast cancer MCF-7 cells, human malignant melanoma cells (A375), human prostate cancer cells (PC3 cells, LNCaP cells) and normal cells HDF (human dermal fibroblast) were received from Pasture Institute, Tehran, Iran. MCF-7 cells were grown in RPMI 1640 medium, A549 cells, A375 cells, PC3 cells, LNCaP cells and HDF cells were grown in DMEM medium. All media contain 10% fetal bovine serum (FBS), penicillin G, streptomycin 100 μg mL^−1 and 1% L-glutamine. The cells were cultured and incubated under humidified 5% CO2 atmosphere at 37 °C.
(§5) The effect of compounds treatment on the viability of cancer cell lines was measured by (3-(4,5-dimethylthiazol-2-yl)-2,5-diphenyl tetrazolium bromide or MTT) assay (MTT assay kit, Bio IDEA, CatNo: BI1017, Iran) based on the ability of live cells to cleave the tetrazolium ring to a molecule that absorb at […] as per the manufacturer's instructions.[33] Etoposide (was kindly provided by Dr A. Foroumadi, Tehran medical Science University, Iran) and dimethyl sulfoxide (or DMSO) was used as positive and negative controls, respectively.[34] Briefly, cells were plated in 96-well culture plates (5 × 10^3 cells per well). After 24 h incubation, the cells were treated with different concentrations of the compounds. After 48 h at 37 °C, the medium was removed and 100 μL of MTT reagent (1 mg mL^−1) was added to each well, and cells were further incubated at 37 °C for 4 h. The MTT solution was removed, 50 μL of DMSO was added to each well to dissolve formazan crystals, and the plates were gently shaken for 10 minutes, followed by reading with an ELISA plate reader (BiotekELx 800, USA). The 50% inhibition concentration (IC50) was defined as the concentration that inhibited cell proliferation by 50% when compared to DMSO treated cells (as negative control).

A549 cells [3] = assay: MTT cytotoxicity assay; assay type: cell-based; details: Homo sapiens, 48 h
Description: as §3, §4, §5

HDF cells = assay: MTT cytotoxicity assay; assay type: cell-based; details: 48 h, normal cells (human dermal fibroblast)
Description: as §3, §4, §5

LNCaP cells = assay: MTT cytotoxicity assay; assay type: cell-based; details: Homo sapiens, 48 h
Description: as §3, §4, §5

MCF-7 cells = assay: MTT cytotoxicity assay; assay type: cell-based; details: Homo sapiens, MCF7, 48 h
Description: as §3, §4, §5

PC3 cells = assay: MTT cytotoxicity assay; assay type: cell-based; details: Homo sapiens, PC-3, 48 h
Description: as §3, §4, §5

A549 cells [4] = assay: DAPI staining assay; assay type: cell-based, human; details: 24 h treatment
Description: as §3
DAPI staining assay was used to determine chromatin changes. A549 cells were seeded in six well plates (5 × 10^4 cells per well) containing 12 mm cover-slips and subsequently treated for compound 5a (sample or treated cells) and DMSO (control or untreated cells) for 24 h. Cells then were fixed with 3.7% paraformaldehyde, permeabilized in 0.5% (w/v) Triton X-100, 1% BSA (w/v) for 5 min, washed in PBS, and stained with DAPI (Sigma-Aldrich, USA). All images were taken by an inverted fluorescent microscope (Nikon Eclipse Ti-E).

Bax = assay: Real-time RT-PCR, Bax mRNA expression; assay type: cell-based, human; details: A549 cells, 40 μM, 48 h
Description: (§6) Finally, we confirmed that apoptosis mediated by mitochondria induces in A549 cells. It is well known that the anti-apoptotic Bcl-2 protein is localized on the outer mitochondrial membranes and antagonizes the action of pro-apoptotic Bax. The balance between these two proteins prevents translocation of cytochrome c from the mitochondria to cytoplasm and determines the apoptosis resistance. Down-regulation of Bcl-2 and/or up-regulation of Bax disturb this balance and leads to apoptosis (Fig. 3A).
(§7) For quantitative real-time RT-PCR analysis, after 48 h of treatment with 40 μM of related drug (5a), A549 cells was lysed and the total RNA was extracted using 500 μL of Trizol® reagent according to the protocol provided by the manufacturer (Invitrogen Life Technologies, Carlsbad, CA, USA) followed by reverse transcription into cDNA according to manufactures protocol (ReveretAid M-Mulv reverse transcriptase kit, Thermo Fisher Scientific, MA, USA). Real-time RT-PCR was then performed to amplify cDNA using SYBR green dye universal master mix (Bioron GmbH, Germany), on a Light Cycler 480 (Roche) using the primers for GAPDH-F: 5′-CAA GGT CAT CCA TGA CAA CTTTG-3′, R:5′-[…]-3′; Bax-F:5′-[…]-3′, R: 5′-[…]-3′and Bcl-2-F: 5′-[…]-3′, R: 5′- […]-3′for forty cycles. Data represent averaged copy number normalized to the GAPDH housekeeping gene. Primer synthesis was done by Pishgam Biotech Co. Tehran, Iran. […]

Bcl-2 = assay: Real-time RT-PCR, Bcl-2 mRNA expression; assay type: cell-based, human; details: A549 cells, 40 μM, 48 h
Description: as §6, §7

Cn1c2c(c(=O)n(C)c1=O)C1(C(C#N)=C(N)O2)c2ccccc2-c2c1n[nH]c(=O)c2C#N (stereo not drawn) [5a, 7′-Amino-1′,3′-dimethyl-2′,3,4′-trioxo-1′,2,2′,3,3′,4′-hexahydrospiro[indeno[2,1-c]pyridazine-9,5′-pyrano[2,3-d]pyrimidine]-4,6′-dicarbonitrile]
Sensitivity of S. aureus to compound (S. aureus [1]): sensitive | Inhibition zone (mm) E. coli (E. coli): — | MIC (S. aureus [2]): 5 mM (≈ 2140 µg/mL) | IC50 (A375 cells): 70.72 ± 0.064 µM | IC50 (A549 cells [3]): 40 ± 0.007 µM | IC50 (HDF cells): > 100 µM | IC50 (LNCaP cells): 32.15 ± 0.046 µM | IC50 (MCF-7 cells): > 100 µM | IC50 (PC3 cells): > 100 µM | Chromatin changes / cell death by DAPI staining (A549 cells [4]): induced cell death in A549 cells | Relative expression of Bax mRNA (Bax): up-regulated expression | Relative expression of Bcl-2 mRNA (Bcl-2): down-regulation expression
